Experiments:
Test in all cases: In vitro antibacterial evaluation: minimum inhibitory concentration (MIC), broth dilution method
Assay type in all cases: cell-based
Settings in all cases: 18 hours at 35° C.
[1] = test system: Enterococcus sp.
Procedure, shortened: (§1)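 NCCLS M7-A2 broth dilution; Muller-Hinton II […]; 5×10^5 CFU/mL; 64-0.06 μg/mL. MIC = lowest concentration with no growth.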

[2] = test system: Escherichia coli
Procedure, shortened: as §1

[3] = test system: Staphylococcus sp.
Procedure, shortened: as §1

[4] = test system: Streptococcus sp.
Procedure, shortened: as §1

[5] = Enterococcus faecalis (ATCC 29212)
[6] = Enterococcus faecalis (GC 2242)
[7] = Enterococcus faecalis (GC 4552)
[8] = Enterococcus faecalis (GC 4553)
[9] = Enterococcus faecalis (GC 4554)
[10] = broth dilution, strain ATCC 29212
[11] = Coagulase Negative Staphylococcus (GC 4547)
[12] = Coagulase Negative Staphylococcus (GC 4548)
[13] = Coagulase Negative Staphylococcus (GC 4549)
[14] = Coagulase Negative Staphylococcus (GC 4551)
[15] = Staphylococcus aureus (ATCC 29213)
[16] = Staphylococcus aureus (GC 1131)
[17] = Staphylococcus aureus (GC 4541)
[18] = Staphylococcus aureus (GC 4542)
[19] = Staphylococcus aureus (GC 4544)
[20] = Staphylococcus aureus (GC 4545)
[21] = Staphylococcus aureus-SMITH (GC 4543)
[22] = Staphylococcus haemolyticus (GC 4546)
[23] = broth dilution, strain ATCC 29213
[24] = Streptococcus agalactiae (GC 4564)
[25] = Streptococcus pneumoniae (GC 4565)

Substance: β-O-[(Heptylamino)carbonyl]-cyclo[glycyl-β-methylphenylalanyl-O-(4-O-hexopyranosylhexopyranosyl)tyrosyl-3-(2-iminoimidazolidin-4-yl)seryl-3-(3-hexopyranosyl-2-iminoimidazolidin-4-yl)serylseryl] [Example 253a]
- MIC Enterococcus avium (GC 4558) ([1]; Enterococcus avium (GC 4558)): 16 µg/mL
- MIC Enterococcus faecalis (ATCC 29212) [1, 5]: 16 µg/mL
- MIC Enterococcus faecalis (GC 2242) [1, 6]: 16 µg/mL
- MIC Enterococcus faecalis (GC 2691) ([1]; Enterococcus faecalis (GC 2691)): 16 µg/mL
- MIC Enterococcus faecalis (GC 3059) ([1]; Enterococcus faecalis (GC 3059)): 32 µg/mL
- MIC Enterococcus faecalis (GC 4552) [1, 7]: 32 µg/mL
- MIC Enterococcus faecalis (GC 4553) [1, 8]: 16 µg/mL
- MIC Enterococcus faecalis (GC 4554) [1, 9]: 32 µg/mL
- MIC Enterococcus faecalis (GC 6189) ([1]; Enterococcus faecalis (GC 6189)): 16 µg/mL
- MIC Enterococcus faecium (GC 2243) ([1]; Enterococcus faecium (GC 2243)): 16 µg/mL
- MIC Enterococcus faecium (GC 4556) ([1]; Enterococcus faecium (GC 4556)): 16 µg/mL
- MIC Enterococcus faecium (GC 4557) ([1]; Enterococcus faecium (GC 4557)): 4 µg/mL
- MIC Enterococcus faecalis (ATCC 29212) [1, 10]: 16 µg/mL
- MIC Enterococcus faecalis (GC 2242) ([1]; broth dilution, strain GC 2242): 16 µg/mL
- MIC Enterococcus faecium (GC 2243) ([1]; broth dilution, strain GC 2243): 16 µg/mL
- MIC Enterococcus faecalis (GC 2691) ([1]; broth dilution, strain GC 2691): 16 µg/mL
- MIC Enterococcus faecalis (GC 3059) ([1]; broth dilution, strain GC 3059): 32 µg/mL
- MIC Enterococcus faecalis (GC 4552) ([1]; broth dilution, strain GC 4552): 32 µg/mL
- MIC Enterococcus faecalis (GC 4553) ([1]; broth dilution, strain GC 4553): 16 µg/mL
- MIC Enterococcus faecalis (GC 4554) ([1]; broth dilution, strain GC 4554): 32 µg/mL
- MIC Enterococcus faecium (GC 4556) ([1]; broth dilution, strain GC 4556): 16 µg/mL
- MIC Enterococcus faecium (GC 4557) ([1]; broth dilution, strain GC 4557): 4 µg/mL
- MIC Enterococcus avium (GC 4558) ([1]; broth dilution, strain GC 4558): 16 µg/mL
- MIC Enterococcus faecalis (GC 6189) ([1]; broth dilution, strain GC 6189): 16 µg/mL
- MIC Escherichia coli (ATCC 25922) [2]: >64 µg/mL
- MIC Escherichia coli (GC 4559) [2]: >64 µg/mL
- MIC Escherichia coli (GC 4560) [2]: 2 µg/mL
- MIC Coagulase Negative Staphylococcus (GC 4547) [3, 11]: 4 µg/mL
- MIC Coagulase Negative Staphylococcus (GC 4548) [3, 12]: 4 µg/mL
- MIC Coagulase Negative Staphylococcus (GC 4549) [3, 13]: 1 µg/mL
- MIC Coagulase Negative Staphylococcus (GC 4551) [3, 14]: 8 µg/mL
- MIC Coagulase Negative Staphylococcus (GC 6257) ([3]; Coagulase Negative Staphylococcus (GC 6257)): 1 µg/mL
- MIC Staphylococcus aureus (ATCC 29213) [3, 15]: 4 µg/mL
- MIC Staphylococcus aureus (GC 1131) [3, 16]: 4 µg/mL
- MIC Staphylococcus aureus (GC 3051) ([3]; Staphylococcus aureus (GC 3051)): 2 µg/mL
- MIC Staphylococcus aureus (GC 3053) ([3]; Staphylococcus aureus (GC 3053)): 4 µg/mL
- MIC Staphylococcus aureus (GC 4541) [3, 17]: 4 µg/mL
- MIC Staphylococcus aureus (GC 4542) [3, 18]: 4 µg/mL
- MIC Staphylococcus aureus (GC 4544) [3, 19]: 4 µg/mL
- MIC Staphylococcus aureus (GC 4545) [3, 20]: 2 µg/mL
- MIC Staphylococcus aureus-SMITH (GC 4543) [3, 21]: 2 µg/mL
- MIC Staphylococcus haemolyticus (GC 4546) [3, 22]: 4 µg/mL
- MIC Staphylococcus aureus (ATCC 29213) [3, 23]: 4 µg/mL
- MIC Staphylococcus aureus (GC 1131) ([3]; broth dilution, strain GC 1131): 4 µg/mL
- MIC Staphylococcus aureus (GC 3051) ([3]; broth dilution, strain GC 3051): 2 µg/mL
- MIC Staphylococcus aureus (GC 3053) ([3]; broth dilution, strain GC 3053): 4 µg/mL
- MIC Staphylococcus aureus (GC 4541) ([3]; broth dilution, strain GC 4541): 4 µg/mL
- MIC Staphylococcus aureus (GC 4542) ([3]; broth dilution, strain GC 4542): 4 µg/mL
- MIC Staphylococcus aureus-SMITH (GC 4543) ([3]; broth dilution, strain GC 4543): 2 µg/mL
- MIC Staphylococcus aureus (GC 4544) ([3]; broth dilution, strain GC 4544): 4 µg/mL
- MIC Staphylococcus aureus (GC 4545) ([3]; broth dilution, strain GC 4545): 2 µg/mL
- MIC Staphylococcus haemolyticus (GC 4546) ([3]; broth dilution, strain GC 4546): 4 µg/mL
- MIC Coagulase Negative Staphylococcus (GC 4547) ([3]; broth dilution, strain GC 4547): 4 µg/mL
- MIC Coagulase Negative Staphylococcus (GC 4548) ([3]; broth dilution, strain GC 4548): 4 µg/mL
- MIC Coagulase Negative Staphylococcus (GC 4549) ([3]; broth dilution, strain GC 4549): 1 µg/mL
- MIC Coagulase Negative Staphylococcus (GC 4551) ([3]; broth dilution, strain GC 4551): 8 µg/mL
- MIC Coagulase Negative Staphylococcus (GC 6257) ([3]; broth dilution, strain GC 6257): 1 µg/mL
- MIC Streptococcus agalactiae (GC 4564) [4, 24]: 1 µg/mL
- MIC Streptococcus pneumoniae (ATCC 6301) ([4]; Streptococcus pneumoniae (ATCC 6301)): 0.5 µg/mL
- MIC Streptococcus pneumoniae (GC 1894) ([4]; Streptococcus pneumoniae (GC 1894)): 0.25 µg/mL
- MIC Streptococcus pneumoniae (GC 4565) [4, 25]: 0.5 µg/mL
- MIC Streptococcus pyogenes (GC 4563) ([4]; Streptococcus pyogenes (GC 4563)): 1 µg/mL
- MIC Streptococcus pneumoniae (ATCC 6301) ([4]; broth dilution, strain ATCC 6301): 0.5 µg/mL
- MIC Streptococcus pneumoniae (GC 1894) ([4]; broth dilution, strain GC 1894): 0.25 µg/mL
- MIC Streptococcus pyogenes (GC 4563) ([4]; broth dilution, strain GC 4563): 1 µg/mL
- MIC Streptococcus agalactiae (GC 4564) ([4]; broth dilution, strain GC 4564): 1 µg/mL
- MIC Streptococcus pneumoniae (GC 4565) ([4]; broth dilution, strain GC 4565): 0.5 µg/mL

Substance: β-O-[(Pentylamino)carbonyl]-cyclo[glycyl-β-methylphenylalanyl-O-(4-O-hexopyranosylhexopyranosyl)tyrosyl-3-(2-iminoimidazolidin-4-yl)seryl-3-(3-hexopyranosyl-2-iminoimidazolidin-4-yl)serylseryl] [Example 251a]
- MIC Enterococcus avium (GC 4558) ([1]; Enterococcus avium (GC 4558)): >64 µg/mL
- MIC Enterococcus faecalis (ATCC 29212) [1, 5]: >64 µg/mL
- MIC Enterococcus faecalis (GC 2242) [1, 6]: >64 µg/mL
- MIC Enterococcus faecalis (GC 4552) [1, 7]: >64 µg/mL
- MIC Enterococcus faecalis (GC 4553) [1, 8]: >64 µg/mL
- MIC Enterococcus faecalis (GC 4554) [1, 9]: >64 µg/mL
- MIC Enterococcus faecium (GC 2243) ([1]; Enterococcus faecium (GC 2243)): >64 µg/mL
- MIC Enterococcus faecium (GC 4556) ([1]; Enterococcus faecium (GC 4556)): >64 µg/mL
- MIC Enterococcus faecium (GC 4557) ([1]; Enterococcus faecium (GC 4557)): 16 µg/mL
- MIC Enterococcus faecalis (ATCC 29212) [1, 10]: >64 µg/mL
- MIC Enterococcus faecalis (GC 2242) ([1]; broth dilution, strain GC 2242): >64 µg/mL
- MIC Enterococcus faecium (GC 2243) ([1]; broth dilution, strain GC 2243): >64 µg/mL
- MIC Enterococcus faecalis (GC 4552) ([1]; broth dilution, strain GC 4552): >64 µg/mL
- MIC Enterococcus faecalis (GC 4553) ([1]; broth dilution, strain GC 4553): >64 µg/mL
- MIC Enterococcus faecalis (GC 4554) ([1]; broth dilution, strain GC 4554): >64 µg/mL
- MIC Enterococcus faecium (GC 4556) ([1]; broth dilution, strain GC 4556): >64 µg/mL
- MIC Enterococcus faecium (GC 4557) ([1]; broth dilution, strain GC 4557): 16 µg/mL
- MIC Enterococcus avium (GC 4558) ([1]; broth dilution, strain GC 4558): >64 µg/mL
- MIC Escherichia coli (ATCC 25922) [2]: >64 µg/mL
- MIC Escherichia coli (GC 4559) [2]: >64 µg/mL
- MIC Escherichia coli (GC 4560) [2]: 8 µg/mL
- MIC Coagulase Negative Staphylococcus (GC 4547) [3, 11]: 64 µg/mL
- MIC Coagulase Negative Staphylococcus (GC 4548) [3, 12]: 64 µg/mL
- MIC Coagulase Negative Staphylococcus (GC 4549) [3, 13]: 32 µg/mL
- MIC Coagulase Negative Staphylococcus (GC 4551) [3, 14]: >64 µg/mL
- MIC Coagulase Negative Staphylococcus (ID-3941) ([3]; Coagulase Negative Staphylococcus (ID-3941)): 16 µg/mL
- MIC Staphylococcus aureus (ATCC 29213) [3, 15]: >64 µg/mL
- MIC Staphylococcus aureus (GC 1131) [3, 16]: >64 µg/mL
- MIC Staphylococcus aureus (GC 4541) [3, 17]: 64 µg/mL
- MIC Staphylococcus aureus (GC 4542) [3, 18]: 64 µg/mL
- MIC Staphylococcus aureus (GC 4544) [3, 19]: >64 µg/mL
- MIC Staphylococcus aureus (GC 4545) [3, 20]: 64 µg/mL
- MIC Staphylococcus aureus-SMITH (GC 4543) [3, 21]: 64 µg/mL
- MIC Staphylococcus haemolyticus (GC 4546) [3, 22]: 64 µg/mL
- MIC Staphylococcus aureus (ATCC 29213) [3, 23]: >64 µg/mL
- MIC Staphylococcus aureus (GC 1131) ([3]; broth dilution, strain GC 1131): >64 µg/mL
- MIC Staphylococcus aureus (GC 4541) ([3]; broth dilution, strain GC 4541): 64 µg/mL
- MIC Staphylococcus aureus (GC 4542) ([3]; broth dilution, strain GC 4542): 64 µg/mL
- MIC Staphylococcus aureus-SMITH (GC 4543) ([3]; broth dilution, strain GC 4543): 64 µg/mL
- MIC Staphylococcus aureus (GC 4544) ([3]; broth dilution, strain GC 4544): >64 µg/mL
- MIC Staphylococcus aureus (GC 4545) ([3]; broth dilution, strain GC 4545): 64 µg/mL
- MIC Staphylococcus haemolyticus (GC 4546) ([3]; broth dilution, strain GC 4546): 64 µg/mL
- MIC Coagulase Negative Staphylococcus (GC 4547) ([3]; broth dilution, strain GC 4547): 64 µg/mL
- MIC Coagulase Negative Staphylococcus (GC 4548) ([3]; broth dilution, strain GC 4548): 64 µg/mL
- MIC Coagulase Negative Staphylococcus (GC 4549) ([3]; broth dilution, strain GC 4549): 32 µg/mL
- MIC Coagulase Negative Staphylococcus (GC 4551) ([3]; broth dilution, strain GC 4551): >64 µg/mL
- MIC Coagulase Negative Staphylococcus (ID-3941) ([3]; broth dilution, strain ID-3941): 16 µg/mL
- MIC Streptococcus agalactiae (GC 4564) [4, 24]: 32 µg/mL
- MIC Streptococcus pneumoniae (GC 4565) [4, 25]: 8 µg/mL
- MIC Streptococcus pyogenes (ID-3187) ([4]; Streptococcus pyogenes (ID-3187)): 16 µg/mL
- MIC Streptococcus agalactiae (GC 4564) ([4]; broth dilution, strain GC 4564): 32 µg/mL
- MIC Streptococcus pneumoniae (GC 4565) ([4]; broth dilution, strain GC 4565): 8 µg/mL
- MIC Streptococcus pyogenes (ID-3187) ([4]; broth dilution, strain ID-3187): 16 µg/mL
